ChEMBL document CHEMBL1201862, “PubChem BioAssay data set” (2004)
Calls of active or inactive are those of the source.

Legend:
[1] = system: Streptococcus sp. 'group A'; test: Streptococcus pyogenes SK(-)GAS viability under kanamycin – luminescence, BacTiterGlo, confirmation, counter-screen for streptokinase expression inhibitor project, dose response (AID 1900); format: functional, organism-based
Streptokinase A = biological target: T1, Streptokinase A (Streptococcus pyogenes serotype M1, UniProt P10520); test: viability-normalized secreted streptokinase activity reduction – plasminogen activation absorbance, OD405, dose response (AID 1914); format: functional, Streptococcus pyogenes M1 GAS;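 note: secreted streptokinase activity via plasminogen activation per viability signal from cell pellet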
T1 sequence (P10520 whole entry): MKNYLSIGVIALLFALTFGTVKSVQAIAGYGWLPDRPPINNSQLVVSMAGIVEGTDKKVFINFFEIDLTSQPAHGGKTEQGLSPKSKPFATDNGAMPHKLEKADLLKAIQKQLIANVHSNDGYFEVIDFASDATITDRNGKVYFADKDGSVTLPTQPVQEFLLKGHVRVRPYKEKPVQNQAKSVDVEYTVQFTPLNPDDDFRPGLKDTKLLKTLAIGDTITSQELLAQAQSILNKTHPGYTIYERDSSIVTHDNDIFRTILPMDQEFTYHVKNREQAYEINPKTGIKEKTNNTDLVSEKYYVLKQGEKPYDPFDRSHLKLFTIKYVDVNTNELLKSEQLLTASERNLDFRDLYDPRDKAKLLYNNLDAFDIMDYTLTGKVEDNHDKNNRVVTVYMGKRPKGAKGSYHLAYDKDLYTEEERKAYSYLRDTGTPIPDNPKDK

Streptococcus = test: GAS UMAA2166 growth inhibition – luminescence, BacTiterGlo, counter-screen for streptokinase expression inhibitor project, dose response (AID 1915); format: functional, organism-based;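 note: potency for reduction of bacterial viability or growth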
[2] = biological target: Disintegrin and metalloproteinase domain-containing protein 17 (Homo sapiens, UniProt P78536); test: inhibition of ADAM17 substrate cleavage – biochemical, quenched FRET substrate, counter-screen for ADAM10 exosite inhibitor project, dose response (AID 743253)
Large T antigen = Large T antigen (Simian virus 40, UniProt P03070); format: functional, Betapolyomavirus macacae;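 note: Confirmatory-stage PubChem screen for compounds that inhibit SV40 T antigen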
[3] = biological target: T2, High affinity choline transporter 1 (Homo sapiens, UniProt Q9GZV3); test: human choline transporter blockers, potency – cell-based, 5-point CRC, membrane potential dye, dose response (AID 504840); format: functional
T2 sequence (Q9GZV3 whole entry): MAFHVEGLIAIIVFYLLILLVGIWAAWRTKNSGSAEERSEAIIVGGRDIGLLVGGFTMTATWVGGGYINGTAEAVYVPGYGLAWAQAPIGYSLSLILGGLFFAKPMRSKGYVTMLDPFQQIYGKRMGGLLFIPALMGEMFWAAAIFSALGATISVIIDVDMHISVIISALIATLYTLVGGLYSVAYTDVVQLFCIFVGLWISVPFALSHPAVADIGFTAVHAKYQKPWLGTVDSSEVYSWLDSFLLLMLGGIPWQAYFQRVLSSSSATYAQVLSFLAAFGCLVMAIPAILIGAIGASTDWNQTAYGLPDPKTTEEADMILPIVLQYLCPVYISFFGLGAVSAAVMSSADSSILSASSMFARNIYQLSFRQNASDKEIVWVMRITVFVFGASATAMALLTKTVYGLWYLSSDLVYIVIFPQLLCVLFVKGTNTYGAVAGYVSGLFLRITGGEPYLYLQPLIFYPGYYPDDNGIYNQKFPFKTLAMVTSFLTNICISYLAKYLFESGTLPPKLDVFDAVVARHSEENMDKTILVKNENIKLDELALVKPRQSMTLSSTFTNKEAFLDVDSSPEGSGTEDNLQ

[4] = biological target: Endoplasmic reticulum aminopeptidase 1 (Homo sapiens, UniProt Q9NZ08); test: inhibition of human ERAP1 enzyme activity – biochemical, cherry-pick, set 2, plate reader, dose response (AID 743314)
HEK293 [5] = test: inhibition of NOD1-driven NF-kB reporter – cell-based, luminescence, uHTS, primary screen (AID 1578); format: functional; conditions: Homo sapiens
HEK293 [6] = test: cells; format: functional, cell-based; conditions: Homo sapiens
HEK293 [7] = test: cells; format: functional, cell-based; conditions: Homo sapiens; remark: listed apart in the source
[8] = biological target: Nucleotide-binding oligomerization domain-containing protein 2 (Homo sapiens, UniProt Q9HC29); test: inhibition of NOD2-driven NF-kB reporter – cell-based, luminescence, uHTS, HEK293 (AID 1566); format: functional
HEK293 [9] = test: NOD2 signaling inhibitors in MDP-stimulated cells, cell-based, uHTS, luminescence (AID 2001); format: functional; conditions: Homo sapiens
HEK293 [10] = test: cells; format: functional, cell-based; conditions: Homo sapiens; remark: listed apart in the source
[11] = microbe, parasite or virus in culture; format: functional; conditions: Mycobacterium tuberculosis
[12] = biological target: T3, Sentrin-specific protease 7 (Homo sapiens, UniProt Q9BQF6); format: functional;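 note: Luminescence-based dose-response confirmation of ultra-high-throughput screening hits, measuring inhibition of SENP7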
T3 sequence (Q9BQF6 whole entry): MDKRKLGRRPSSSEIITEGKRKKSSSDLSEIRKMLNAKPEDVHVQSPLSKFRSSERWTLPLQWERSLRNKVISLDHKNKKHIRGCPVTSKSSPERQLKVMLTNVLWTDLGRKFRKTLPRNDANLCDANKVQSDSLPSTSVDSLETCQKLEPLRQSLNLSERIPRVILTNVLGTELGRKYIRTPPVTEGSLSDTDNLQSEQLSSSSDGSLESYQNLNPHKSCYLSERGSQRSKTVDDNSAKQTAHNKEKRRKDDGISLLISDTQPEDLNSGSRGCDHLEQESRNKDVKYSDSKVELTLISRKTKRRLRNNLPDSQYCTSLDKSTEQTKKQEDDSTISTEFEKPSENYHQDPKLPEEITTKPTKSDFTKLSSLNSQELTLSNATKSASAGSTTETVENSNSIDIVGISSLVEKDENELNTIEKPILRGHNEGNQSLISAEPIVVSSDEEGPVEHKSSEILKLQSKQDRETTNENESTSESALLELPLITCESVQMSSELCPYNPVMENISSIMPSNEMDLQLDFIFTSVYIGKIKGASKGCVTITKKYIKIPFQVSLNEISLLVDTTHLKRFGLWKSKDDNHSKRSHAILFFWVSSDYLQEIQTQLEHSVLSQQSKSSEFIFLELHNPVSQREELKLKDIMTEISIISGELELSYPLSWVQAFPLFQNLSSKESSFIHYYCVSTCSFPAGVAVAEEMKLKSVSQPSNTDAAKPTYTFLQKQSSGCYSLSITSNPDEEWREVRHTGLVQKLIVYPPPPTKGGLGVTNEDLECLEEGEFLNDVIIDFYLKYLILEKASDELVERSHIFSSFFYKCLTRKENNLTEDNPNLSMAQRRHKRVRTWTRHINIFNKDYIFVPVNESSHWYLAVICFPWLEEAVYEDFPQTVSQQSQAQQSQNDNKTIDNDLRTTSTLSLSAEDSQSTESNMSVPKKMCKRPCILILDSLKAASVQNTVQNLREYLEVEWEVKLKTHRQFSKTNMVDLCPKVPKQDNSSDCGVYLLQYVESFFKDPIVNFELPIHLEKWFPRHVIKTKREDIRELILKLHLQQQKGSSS

[13] = biological target: T4, Sentrin-specific protease 6 (Homo sapiens, UniProt Q9GZR1); format: functional;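 note: Luminescence-based dose-response confirmatory assay of SENP6 inhibition, following up an ultra-high-throughput screen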
T4 sequence (Q9GZR1 whole entry): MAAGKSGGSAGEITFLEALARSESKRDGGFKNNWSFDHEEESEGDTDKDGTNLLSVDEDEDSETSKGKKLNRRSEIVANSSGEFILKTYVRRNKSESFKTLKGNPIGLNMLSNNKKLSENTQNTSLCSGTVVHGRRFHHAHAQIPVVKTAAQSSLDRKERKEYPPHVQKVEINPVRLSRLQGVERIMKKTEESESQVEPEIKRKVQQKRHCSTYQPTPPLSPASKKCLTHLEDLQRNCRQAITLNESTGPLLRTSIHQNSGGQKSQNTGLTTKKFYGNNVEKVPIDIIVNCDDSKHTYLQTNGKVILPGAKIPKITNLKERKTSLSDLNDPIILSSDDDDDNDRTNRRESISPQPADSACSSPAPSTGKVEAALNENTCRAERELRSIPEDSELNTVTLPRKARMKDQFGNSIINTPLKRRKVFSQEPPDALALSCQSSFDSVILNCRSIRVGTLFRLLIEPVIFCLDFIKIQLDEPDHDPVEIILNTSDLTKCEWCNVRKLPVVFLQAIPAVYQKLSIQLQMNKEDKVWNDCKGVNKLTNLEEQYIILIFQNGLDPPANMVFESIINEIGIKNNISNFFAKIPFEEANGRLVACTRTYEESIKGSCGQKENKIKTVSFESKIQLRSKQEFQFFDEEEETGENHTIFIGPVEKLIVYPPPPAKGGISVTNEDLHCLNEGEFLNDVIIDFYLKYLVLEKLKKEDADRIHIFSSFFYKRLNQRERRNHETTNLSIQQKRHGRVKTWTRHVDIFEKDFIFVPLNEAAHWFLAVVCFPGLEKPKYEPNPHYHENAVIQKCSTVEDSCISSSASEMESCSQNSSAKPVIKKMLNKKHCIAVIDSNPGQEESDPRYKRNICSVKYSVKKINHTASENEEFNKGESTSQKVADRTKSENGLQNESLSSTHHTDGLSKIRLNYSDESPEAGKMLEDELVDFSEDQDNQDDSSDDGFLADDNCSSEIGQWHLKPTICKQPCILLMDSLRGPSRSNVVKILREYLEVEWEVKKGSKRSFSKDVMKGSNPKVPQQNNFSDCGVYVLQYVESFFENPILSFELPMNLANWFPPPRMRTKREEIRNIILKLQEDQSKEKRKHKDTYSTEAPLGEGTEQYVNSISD

[14] = biological target: T5, Sentrin-specific protease 8 (Homo sapiens, UniProt Q96LD8); format: functional;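 note: luminescence read-out of SENP8 inhibition, dose-response confirmation following an ultra-high-throughput screen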
T5 sequence (Q96LD8 whole entry): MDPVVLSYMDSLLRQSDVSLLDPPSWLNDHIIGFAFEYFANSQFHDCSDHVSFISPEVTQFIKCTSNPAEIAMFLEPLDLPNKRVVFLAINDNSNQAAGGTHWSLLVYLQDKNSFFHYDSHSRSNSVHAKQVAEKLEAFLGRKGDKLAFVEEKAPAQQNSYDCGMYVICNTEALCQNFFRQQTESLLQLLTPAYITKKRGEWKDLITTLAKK

[15] = viability loss in HepG2 hepatoma cells – cell-based, ATP luminescence, cherry-pick, activator set 2, cytotoxicity control, dose response (AID 1053143); format: functional
[16] = blockers of FN fibrillogenesis by fibroblasts – AH1F cells, Alexa488-FN fluorescence, cherry-picks, dose response (AID 1035475); format: functional, cell-based
[17] = Late stage assay provider results from the probe development effort to identify selective inhibitors of heat shock protein 90 (HSP90): Absorbance-based cell proliferation assay in SKBR3 cells.; format: functional; conditions: SK-BR-3
[18] = Late stage assay provider results from the probe development effort to identify selective inhibitors of heat shock protein 90 (HSP90): Absorbance-based cell proliferation assay in MCF7 cells.; format: functional

Sequence of Endoplasmic reticulum aminopeptidase 1 (Q9NZ08 whole entry): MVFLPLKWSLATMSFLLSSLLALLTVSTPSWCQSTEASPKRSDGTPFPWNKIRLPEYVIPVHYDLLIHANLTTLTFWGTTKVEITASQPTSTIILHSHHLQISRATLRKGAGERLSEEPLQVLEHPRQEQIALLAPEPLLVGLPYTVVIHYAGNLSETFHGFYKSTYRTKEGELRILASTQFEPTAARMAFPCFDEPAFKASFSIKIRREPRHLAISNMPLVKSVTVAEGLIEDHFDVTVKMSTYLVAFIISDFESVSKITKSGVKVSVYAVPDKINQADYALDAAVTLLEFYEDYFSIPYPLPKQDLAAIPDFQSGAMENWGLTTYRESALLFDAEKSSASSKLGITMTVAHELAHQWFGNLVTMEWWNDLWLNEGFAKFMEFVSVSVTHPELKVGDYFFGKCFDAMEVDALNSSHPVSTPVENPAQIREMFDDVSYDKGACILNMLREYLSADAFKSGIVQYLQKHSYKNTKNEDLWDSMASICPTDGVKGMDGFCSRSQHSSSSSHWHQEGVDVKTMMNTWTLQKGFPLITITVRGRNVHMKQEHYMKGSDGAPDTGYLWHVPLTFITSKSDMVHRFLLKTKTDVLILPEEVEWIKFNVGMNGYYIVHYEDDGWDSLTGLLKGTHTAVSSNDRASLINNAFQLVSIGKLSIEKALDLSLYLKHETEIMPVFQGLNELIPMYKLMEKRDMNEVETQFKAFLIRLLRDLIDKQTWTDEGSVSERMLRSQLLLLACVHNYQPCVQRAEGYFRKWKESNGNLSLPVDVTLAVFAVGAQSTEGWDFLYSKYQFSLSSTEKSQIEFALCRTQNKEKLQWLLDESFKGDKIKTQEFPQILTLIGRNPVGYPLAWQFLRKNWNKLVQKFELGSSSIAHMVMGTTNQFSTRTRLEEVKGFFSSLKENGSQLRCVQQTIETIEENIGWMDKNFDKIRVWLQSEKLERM
Sequence of Nucleotide-binding oligomerization domain-containing protein 2 (Q9HC29 whole entry, the tested form may be a part): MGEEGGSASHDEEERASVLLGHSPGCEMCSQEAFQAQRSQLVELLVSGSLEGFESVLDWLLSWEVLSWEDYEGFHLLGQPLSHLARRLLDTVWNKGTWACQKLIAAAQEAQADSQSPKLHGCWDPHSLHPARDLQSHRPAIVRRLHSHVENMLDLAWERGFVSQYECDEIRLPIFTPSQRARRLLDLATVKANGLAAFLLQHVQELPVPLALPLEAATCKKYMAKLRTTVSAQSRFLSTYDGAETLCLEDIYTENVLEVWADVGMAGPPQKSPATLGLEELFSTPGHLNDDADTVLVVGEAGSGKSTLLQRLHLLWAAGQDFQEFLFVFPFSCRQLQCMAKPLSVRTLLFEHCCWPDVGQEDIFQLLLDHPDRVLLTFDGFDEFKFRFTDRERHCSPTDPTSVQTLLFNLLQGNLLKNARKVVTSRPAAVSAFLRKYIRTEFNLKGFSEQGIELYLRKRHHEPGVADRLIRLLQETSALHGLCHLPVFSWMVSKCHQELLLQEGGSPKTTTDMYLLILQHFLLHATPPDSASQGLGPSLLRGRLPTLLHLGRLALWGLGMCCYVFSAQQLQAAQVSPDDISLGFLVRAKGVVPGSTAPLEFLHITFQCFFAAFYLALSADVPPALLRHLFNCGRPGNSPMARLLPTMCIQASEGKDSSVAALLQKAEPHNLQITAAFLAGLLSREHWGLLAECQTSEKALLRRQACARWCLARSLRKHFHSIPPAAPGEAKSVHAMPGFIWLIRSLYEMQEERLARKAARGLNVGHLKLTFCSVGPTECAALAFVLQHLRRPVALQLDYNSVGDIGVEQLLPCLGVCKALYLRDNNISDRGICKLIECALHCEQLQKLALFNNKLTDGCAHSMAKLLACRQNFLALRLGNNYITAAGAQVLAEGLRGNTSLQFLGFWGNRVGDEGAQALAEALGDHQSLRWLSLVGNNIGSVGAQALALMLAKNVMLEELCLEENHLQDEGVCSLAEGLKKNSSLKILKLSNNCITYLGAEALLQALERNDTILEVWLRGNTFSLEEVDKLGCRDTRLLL
Sequence of Disintegrin and metalloproteinase domain-containing protein 17 (P78536 whole entry, the tested form may be a part): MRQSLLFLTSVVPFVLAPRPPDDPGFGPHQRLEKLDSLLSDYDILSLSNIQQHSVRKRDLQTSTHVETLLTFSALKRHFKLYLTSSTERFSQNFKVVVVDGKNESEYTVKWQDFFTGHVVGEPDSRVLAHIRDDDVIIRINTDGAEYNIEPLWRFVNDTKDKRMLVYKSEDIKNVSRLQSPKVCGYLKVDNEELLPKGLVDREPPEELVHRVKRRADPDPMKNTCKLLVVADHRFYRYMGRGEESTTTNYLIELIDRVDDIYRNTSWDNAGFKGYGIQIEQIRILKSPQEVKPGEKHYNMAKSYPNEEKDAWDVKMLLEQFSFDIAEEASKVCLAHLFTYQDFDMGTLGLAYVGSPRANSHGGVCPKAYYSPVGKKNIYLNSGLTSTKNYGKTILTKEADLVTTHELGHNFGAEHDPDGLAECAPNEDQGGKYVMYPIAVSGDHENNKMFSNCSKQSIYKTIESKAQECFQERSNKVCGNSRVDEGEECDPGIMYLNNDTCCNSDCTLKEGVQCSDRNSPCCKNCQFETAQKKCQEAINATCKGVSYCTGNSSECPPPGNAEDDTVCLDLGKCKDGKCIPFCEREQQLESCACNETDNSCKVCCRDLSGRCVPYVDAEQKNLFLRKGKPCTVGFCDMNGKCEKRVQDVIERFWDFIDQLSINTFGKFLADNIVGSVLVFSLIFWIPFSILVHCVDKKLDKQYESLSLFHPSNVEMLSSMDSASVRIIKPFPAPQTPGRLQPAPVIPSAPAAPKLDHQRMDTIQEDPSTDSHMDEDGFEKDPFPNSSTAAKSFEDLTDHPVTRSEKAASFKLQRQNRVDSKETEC
Sequence of Large T antigen (P03070 whole entry): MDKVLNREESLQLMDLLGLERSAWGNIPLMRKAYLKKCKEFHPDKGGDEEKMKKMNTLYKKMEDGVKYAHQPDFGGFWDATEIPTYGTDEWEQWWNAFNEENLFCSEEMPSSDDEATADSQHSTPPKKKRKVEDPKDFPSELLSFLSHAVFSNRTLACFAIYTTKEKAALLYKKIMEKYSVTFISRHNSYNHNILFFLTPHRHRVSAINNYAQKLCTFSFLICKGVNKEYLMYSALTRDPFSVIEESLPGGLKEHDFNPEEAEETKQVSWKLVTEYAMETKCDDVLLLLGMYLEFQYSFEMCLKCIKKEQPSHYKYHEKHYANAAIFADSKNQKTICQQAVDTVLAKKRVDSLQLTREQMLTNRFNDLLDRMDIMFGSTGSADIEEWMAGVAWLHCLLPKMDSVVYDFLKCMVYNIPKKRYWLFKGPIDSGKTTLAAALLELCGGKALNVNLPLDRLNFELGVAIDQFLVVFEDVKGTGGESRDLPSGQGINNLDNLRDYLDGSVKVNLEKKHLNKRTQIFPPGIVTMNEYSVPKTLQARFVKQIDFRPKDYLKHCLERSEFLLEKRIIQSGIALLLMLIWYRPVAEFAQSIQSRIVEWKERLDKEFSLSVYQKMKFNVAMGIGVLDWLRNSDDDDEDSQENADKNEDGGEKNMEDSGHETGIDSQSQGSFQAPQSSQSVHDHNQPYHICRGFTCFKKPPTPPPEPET

## CCCN(CC(=O)Nc1cc(Cl)cc(Cl)c1)CC(=O)Nc1ccc(F)c(F)c1F
[1]
  EC50: 1.77 µM (active)
Streptokinase A
  EC50: 1.48 µM (active)
Streptococcus
  EC50: 10.4 µM (active)
[2]
  IC50: > 69.5 µM (inactive)

## CSC1=NS(=O)(=O)c2c(C)nn(C)c2S1
Large T antigen
  IC50: 32.8 µM (active)
[3]
  IC50: 10.7 µM (active)
[4]
  AC50: 18.7 µM (active)

## CCOc1cccc(/C=C/c2ccc3cccc(O)c3n2)c1O
HEK293 [5]
  EC50: > 20 µM (inactive)
HEK293 [6]
  IC50: 11.5 µM (active)
HEK293 [7]
  IC50: > 20 µM (inactive)
[8]
  EC50: > 20 µM (inactive)
HEK293 [9]
  IC50: 3.71 µM (inactive)
HEK293 [10]
  IC50: > 20 µM (inactive)
[11]
  CC50: 35.7 µM (active)
[12]
  IC50: 4.32 µM (active)
[13]
  IC50: 7.66 µM (active)
[14]
  IC50: > 100 µM (inactive)
[15]
  AC50: 26 µM (active)

## C[C@@H]1CN([C@H](C)CO)C(=O)c2cccc(NC(=O)Nc3ccc(C(F)(F)F)cc3)c2O[C@H]1CN(C)C(=O)Nc1cccc2ccccc12
[16]
  AC50: 57.7 µM (active)

## O=C(O)CCCCOc1ccc2cc(Br)c(=O)oc2c1
[17]
  IC50: > 100 µM (inactive)
[18]
  IC50: > 100 µM (inactive)
